# Reference: patent publication US5220050A, “Peptide mimetic compounds useful as platelet aggregation inhibitors” (G. D. Searle & Co., priority 1991, dated 1993)
# Structures can show the parent of a compound that is named as a salt.
# Tested on: Platelet Aggregation in Dog PRP
# Test: In-Vitro Platelet Aggregation in PRP (ADP induced)
# Type: cell-based
# Details: Canis lupus familiaris, Platelet, in-vitro
# Description: Healthy male or female dogs were fasted for 8 hours prior to drawing blood; then 30 ml whole blood was collected using a butterfly needle and 30 cc plastic syringe with 3 ml of 0.129 M buffered sodium citrate (3.8%). The syringe was rotated carefully as blood was drawn to mix the citrate. Platelet-rich plasma (PRP) was prepared by centrifugation at 975×g for 3.17 minutes at room temperature, allowing the centrifuge to coast to a stop without braking. The PRP was removed from the blood with a plastic pipette and placed in a plastic capped, 50 ml Corning conical sterile centrifuge tube which was held at room temperature. Platelet poor plasma (PPP) was prepared by centrifuging the remaining blood at 2000×g for 15 minutes at room temperature allowing the centrifuge to coast to a stop without braking. The PRP was adjusted with PPP to a count of 2-3×10^8 platelets per ml. 400 μl of the PRP preparation and 50 μl of the compound to be tested or saline were preincubated for 1 minute at 37° C. in a BioData aggregometer (BioData, Horsham, Pa.). 50 μl of adenosine 5'diphosphate (ADP) (50 μm final concentration) was added to the cuvettes and the aggregation was monitored for 1 minute. All compounds are tested in duplicate. Results are calculated as follows:
# Percent of control=[(maximal OD minus initial OD of compound) divided by (maximal OD minus initial OD of control saline)]×100. The % inhibition=100-(percent of control).
row,SMILES,IC50 [nM]
1,N=C(N)c1ccc(CCCCC(=O)NC(CC(=O)O)c2ccccc2O)cc1 (racemic) [(±)-β-[[5-[4-(aminoiminomethyl)phenyl]-1-oxopentyl]amino-2-hydroxybenzenepropanoic acid],2000
2,COc1ccc(C(CC(=O)O)NC(=O)CCCCc2ccc(C(=N)N)cc2)c(O)c1 (racemic) [(±)-β-[[5-[4-(aminoiminomethyl)phenyl]-1-oxopentyl]amino]-2-hydroxy-4-methoxybenzenepropanoic acid],690
3,N=C(N)c1ccc(CCCCC(=O)NC(CC(=O)O)c2cccs2)cc1 (racemic) [(±)-β-[[5-[4-(aminoiminomethyl)phenyl]-1-oxopentyl]amino]-2-thiophenepropanoic acid],1700
4,C[n+]1cccc(C(CC(=O)O)NC(=O)CCCCc2ccc(C(=N)N)cc2)c1 (stereo not drawn) [3-[1-[[5-[4-(aminoiminomethyl)phenyl]-1-oxopentyl]amino]-2-carboxyethyl]-1-methylpyridinium chloride],5800
5,C=CC(CC(=O)O)NC(=O)CCCCc1ccc(C(=N)N)cc1 (stereo not drawn) [3-[[5-[4-(aminoiminomethyl)phenyl]-1-oxopentyl]amino]-4-pentenoic acid],9200
6,CC(CCC(=O)NC(C)CC(=O)O)Cc1ccc(C(=N)N)cc1 (stereo not drawn) [3-[[5-[4-(aminoiminomethyl)phenyl]-4-methyl-1-oxopentyl]amino]butanoic acid],1250
7,C[C@H](CC(=O)O)NC(=O)CCCCc1ccc(C(=N)N)cc1 [3R-[[5-[4-(aminoiminomethyl)phenyl]-1-oxopentyl]amino]butanoic acid],1300
8,N=C(N)c1ccc(CCCCC(=O)NC(CC(=O)O)c2ccc(C(=N)N)cc2)cc1 (stereo not drawn) [4-(aminoiminomethyl)-β-[[5-[4-(aminoiminomethyl)phenyl]-1-oxopentyl]amino]benzenepropanoic acid],1800
9,N=C(N)c1ccc(CCCCC(=O)NCCC(=O)O)cc1 [N-[5-[4 (aminoiminomethyl)phenyl]-1-oxopentyl]-β-alanine],6000
10,N=C(N)c1ccc(CCCCC(=O)NCC(O)C(=O)O)cc1 (stereo not drawn) [N-[5-[4-(Aminoiminomethyl)phenyl]-1-oxopentyl]-2-hydroxy-β-alanine],10000
11,"N=C(N)c1ccc(CCCCC(=O)NCCC(=O)OCc2ccccc2)cc1 [N-[5-[4-(Aminoiminomethyl)phenyl]-1-oxopentyl]-β-alanine, phenylmethyl ester]",5000
12,N=C(N)c1ccc(CCCCC(=O)NCC(F)C(=O)O)cc1 (stereo not drawn) [N-[5-[4-(Aminoiminomethyl]phenyl]-1-oxopentyl]-2-fluoro-β-alanine],30000
13,N=C(N)c1ccc(CCCCC(=O)NC(CC(=O)O)Cc2ccccc2)cc1 (stereo not drawn) [β-[5-[4-(Aminoiminomethyl)phenyl]-1-oxopentyl]amino]benzenebutanoic acid],3000
14,"N=C(N)c1ccc(CCCCC(=O)NC(CC(=O)O)c2ccc(-c3ccccc3)cc2)cc1 (stereo not drawn) [β-[[5-[4-(Aminoiminomethyl)phenyl)-1-oxopentyl]amino][1,1'-biphenyl]-4-propanoic acid, acetate salt]",2300
15,N=C(N)c1ccc(C#CCCC(=O)NC(CC(=O)O)c2ccccc2)cc1 (stereo not drawn) [β-[[5-[4-(aminoiminomethyl)phenyl]-1-oxo-4-pentynyl]amino]benzenepropanoic acid],1800
16,"N=C(N)c1ccc(CCCCC(=O)NC(CC(=O)O)c2ccc3c(c2)OCO3)cc1 (stereo not drawn) [β-[[5-[4-(aminoiminomethyl)phenyl]-1-oxopentyl]amino]-1,3-benzodioxole-5-propanoic acid]",280
17,"COc1ccc(C(CC(=O)O)NC(=O)CCCCc2ccc(C(=N)N)cc2)c(OC)c1 (stereo not drawn) [β-[[5-[4-(aminoiminomethyl)phenyl]-1-oxopentyl]amino]-2,4-dimethoxybenzenepropanoic acid]",2500
18,"COc1ccc(OC)c(C(CC(=O)O)NC(=O)CCCCc2ccc(C(=N)N)cc2)c1 (stereo not drawn) [β-[[5-[4-(aminoiminomethyl)phenyl]-1-oxopentyl]amino]-2,5-dimethoxybenzenepropanoic acid]",9000
